Patent US20130011378A1, “Stable formulations of a hyaluronan-degrading enzyme” (priority 2011, published 2013)
Like-named read-outs stand apart in the source and are kept apart here. Each block holds one compound with its values, some of them ahead of it.

Legend:
rHuPH20 [1] = molecular target: T1, rHuPH20 (Homo sapiens, UniProt P38567); experiment: Determination of hyaluronidase activity of rHuPH20, turbidimetric assay (Example 2, variant not specified); format: biochemical; conditions: for Effect on rHuPH20 enzymatic activity: stabilizer screening in rHuPH20/insulin formulation, semi-quantitative in comparison with NaCl, samples incubated at 30° C. for about one week
T1 construct: made in house; host or cells: CHO cells (DG44 CHO, HZ24 plasmid, clone 2B2)
T1 sequence (P38567 36-482): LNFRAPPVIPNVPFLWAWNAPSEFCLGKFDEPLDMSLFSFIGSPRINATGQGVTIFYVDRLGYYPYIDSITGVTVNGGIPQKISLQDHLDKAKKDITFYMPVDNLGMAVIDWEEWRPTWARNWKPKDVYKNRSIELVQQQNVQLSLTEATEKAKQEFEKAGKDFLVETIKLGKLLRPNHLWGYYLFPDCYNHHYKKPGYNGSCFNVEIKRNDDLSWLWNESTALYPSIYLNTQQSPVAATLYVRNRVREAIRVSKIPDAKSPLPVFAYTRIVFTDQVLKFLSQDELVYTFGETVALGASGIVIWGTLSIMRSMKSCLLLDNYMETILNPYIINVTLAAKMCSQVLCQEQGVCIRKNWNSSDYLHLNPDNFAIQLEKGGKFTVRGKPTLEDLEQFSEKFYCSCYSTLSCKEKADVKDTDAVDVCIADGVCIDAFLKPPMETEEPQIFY

[2] = Non-denaturing SEC: percent main peak / aggregates of insulin and rHuPH20; format: physicochemical
Experimental: Reference samples were stored in HPLC vials at 10° C. prior to use.
Samples were stored in HPLC vials at 10° C. prior to use, for up to 3 days.
0.5× Phosphate Buffered Saline (PBS) solution was prepared by diluting 10×PBS with HPLC grade water.
Insulin percent purity was expressed as percentage of the insulin main peak versus the total insulin peaks. The target specification is less than 2% high molecular weight protein, i.e., insulin aggregates.
SEC was performed using the following conditions: 1× Phosphate Buffered Saline (PBS), a Toso BioScience G2000 SWXL column, and a flow rate set at 1 mL/min. Data were collected as described above and means were reported and entered into the design table following the sample sequence provided by the DOE software.

[3] = RP-HPLC: insulin apparent solubility / percent recovery
Experimental: Apparent solubility was measured as the percent insulin recovery as compared to the initial formulations/conditions.
Samples were prepared by withdrawing 100 μL from each vial at every time point and centrifuging prior to loading. Samples were stored in an autosampler at 4° C. prior to use, and were considered stable for 3 days after preparation. All samples were tested in duplicate.
For insulin, 20 μL was injected for each HPLC run.
To determine the apparent solubility, the peak area of insulin/insulin analog main peak and desamido peak were integrated and combined together to calculate the percentage relative to the standards. […] The data were processed using Design-Expert® 7.0 (StatEase) and the “historical data” feature. Insulin percent purity was expressed as the percent of main insulin versus all insulin species.

rHuPH20 [4] = molecular target: T1, rHuPH20; experiment: RP-HPLC: rHuPH20 oxidation peaks (ox-1, ox-2); format: physicochemical; conditions: 0.02% surfactant, 30° C., 72 hours
Source text: The stability of hyaluronan degrading enzymes in a composition, such as in the co-formulations provided herein, also can be assessed using other methods and assays known in the art. […] Percent recovery is the relative percentage of the hyaluronidase in the co-formulation over time and at various storage conditions, as compared to a reference sample. […] An increase in particle size and a decrease in the melting temperature indicates denaturation and subsequent aggregation of the hyaluronidase. […] Other methods known to one of skill in the art that can be used to determine the stability of the hyaluronidase in the co-formulations provided herein, include polyacrylamide gel electrophoresis (PAGE), immunoblotting, nuclear magnetic resonance (NMR) spectroscopy, mass spectrometry, circular dichroism (CD) and dye-based fluorescence assays.
The formulations varied in the surfactant and surfactant concentration and the buffer (either histidine or phosphate).
Methionine oxidation can be prevented by addition of free methionine as a scavenger to react with potential oxidative compounds.

[5] = t = 0, 100 μg/mL rHuPH20, pH 7.3, 140 mM NaCl, 0.01% polysorbate 80, preservative levels of Table 21, in U/mL
[6] = 35° C., Table 22 concentrations

Compound: C[CH2][Hg][S]c1ccccc1C(=O)[O-].[Na+] [Thimerosal]
rHuPH20 activity (rHuPH20 [1]; 24 hours, 25° C., in U/mL): 8990 | rHuPH20 activity (rHuPH20 [1]; 5 days, 25° C., in U/mL): 8960 | rHuPH20 activity (rHuPH20 [1]; 6 days, 35° C., in U/mL): 10070 | rHuPH20 activity (rHuPH20 [1]; [5]): 10,290 | % Main rHuPH20 peak by non-denaturing SEC ([2]; 4° C., 1 day): 98.59% | % Main rHuPH20 peak by non-denaturing SEC ([2]; 35° C., 1 day): 98.31%

Compound: C[N+](C)(C)[O-] [Trimethylamine oxide (TMAO)]
Effect on rHuPH20 enzymatic activity (rHuPH20 [1]): No effect | Effect on insulin solubility ([3]; stabilizer screening in rHuPH20/insulin formulation, semi-quantitative in comparison with NaCl, RP-HPLC, samples stored at 5° C.): No effect

Compound: Cc1cccc(O)c1 [m-cresol]
rHuPH20 activity (rHuPH20 [1]; 48 hours, 4° C., preservative levels of Table 22, in U/mL): 10,950 | rHuPH20 activity (rHuPH20 [1]; 48 hours, 35° C., preservative levels of Table 22): <LOQ | Enzymatic Activity of rHuPH20 (rHuPH20 [1]; preservative 0.05%, 1 Month, 25° C., insulin/rHuPH20 formulation pH 7.1, 140 mM NaCl): 2103 U/mL | Enzymatic Activity of rHuPH20 (rHuPH20 [1]; preservative 0.05%, 1 Week, 35° C.): 2019 U/mL | Enzymatic Activity of rHuPH20 (rHuPH20 [1]; preservative 0.05%, 2 Weeks, 35° C.): 1955 U/mL | Enzymatic Activity of rHuPH20 (rHuPH20 [1]; preservative 0.1%, 1 Month, 25° C.): 2188 U/mL | Enzymatic Activity of rHuPH20 (rHuPH20 [1]; preservative 0.1%, 1 Week, 35° C.): 2147 U/mL | Enzymatic Activity of rHuPH20 (rHuPH20 [1]; preservative 0.1%, 2 Weeks, 35° C.): 2069 U/mL | Enzymatic Activity of rHuPH20 (rHuPH20 [1]; preservative 0.2%, 1 Month, 25° C.): 2013 U/mL | Enzymatic Activity of rHuPH20 (rHuPH20 [1]; preservative 0.2%, 1 Week, 35° C.): 466 U/mL | Enzymatic Activity of rHuPH20 (rHuPH20 [1]; preservative 0.2%, 2 Weeks, 35° C.): 185 U/mL | Enzymatic Activity of rHuPH20 (rHuPH20 [1]; preservative 0.4%, 1 Month, 25° C.): <LOD | Enzymatic Activity of rHuPH20 (rHuPH20 [1]; preservative 0.4%, 1 Week, 35° C.): <LOD | Enzymatic Activity of rHuPH20 (rHuPH20 [1]; preservative 0.4%, 2 Weeks, 35° C.): <LOD | % Main rHuPH20 peak by non-denaturing SEC ([2]; 4° C., Table 22 concentrations): 100.00% | % Main rHuPH20 peak by non-denaturing SEC [2, 6]: 0.834%

Compound: COC(=O)c1ccc(O)cc1 [methylparaben]
Enzymatic Activity of rHuPH20 (rHuPH20 [1]; preservative 0.3%, 1 Week, 35° C.): 730 U/mL | % Main rHuPH20 peak by non-denaturing SEC ([2]; 4° C., Table 22 concentrations): 100.00% | % Main rHuPH20 peak by non-denaturing SEC [2, 6]: 96.91%

Compound: Benzalkonium Chloride
rHuPH20 activity (rHuPH20 [1]; 24 hours, 25° C., in U/mL): 10750 | rHuPH20 activity (rHuPH20 [1]; 5 days, 25° C., in U/mL): 2710 | rHuPH20 activity (rHuPH20 [1]; 6 days, 35° C.): <LOQ | rHuPH20 activity (rHuPH20 [1]; [5]): 11,740 | % Main rHuPH20 peak by non-denaturing SEC ([2]; 4° C., 1 day): 99.64% | % Main rHuPH20 peak by non-denaturing SEC ([2]; 35° C., 1 day): <LOD

Compound: hyaluronic acid [HA]
% of the original activity retained (rHuPH20 [1]; 1 week at 30° C., pH 7.1, 1 mg/mL HA, 75 mM NaCl): 57% | % of the original rHuPH20 remained (rHuPH20 [1]; 1 week at 30° C., pH 7.1, 5.5 mg/mL HA, 100 mM NaCl): 68% | % of the original activity retained (rHuPH20 [1]; 1 week at 30° C., pH 7.1, 10 mg/mL HA): 85% | rHuPH20 activity (rHuPH20 [1]; 1 week at 30° C., pH 7.1, 10 mg/mL HA, from 600 U/mL): 510 U/mL | rHuPH20 activity (rHuPH20 [1]; rHuPH20/insulin co-formulation, 1 week at 30° C., pH 7.1, 1 mg/mL HA, 75 mM NaCl, from 600 U/mL): 341 U/mL | effect on rHuPH20 stability in comparison with NaCl (rHuPH20 [1]; stabilizer screening, 30° C. about one week, […] m-cresol, 0.2% phenol): stabilized rHuPH20 more than NaCl

Next, values leading:

Effect on rHuPH20 enzymatic activity (rHuPH20 [1]): No effect
Compound: OC[C@H]1O[C@@](CO)(O[C@H]2O[C@H](CO)[C@@H](O)[C@H](O)[C@H]2O)[C@@H](O)[C@@H]1O [Sucrose]

Effect on rHuPH20 enzymatic activity (rHuPH20 [1]): No effect
Compound: OC[C@H]1O[C@H](O[C@H]2O[C@H](CO)[C@@H](O)[C@H](O)[C@H]2O)[C@H](O)[C@@H](O)[C@@H]1O [Trehalose]

Effect on rHuPH20 enzymatic activity (rHuPH20 [1]): No effect | Effect on insulin solubility [3]: No/slight effect;
Compound: OCC(O)CO [glycerol]

Effect on rHuPH20 enzymatic activity (rHuPH20 [1]): No effect
Compound: OC[C@@H](O)[C@@H](O)[C@H](O)[C@@H](O)CO [sorbitol]

% of Oxidation Peak 1 of rHuPH20 (rHuPH20 [4]; Methionine 0 mM): 4.01% | % of Oxidation Peak 1 of rHuPH20 (rHuPH20 [4]; Methionine 2 mM): 3.43% | % of Oxidation Peak 1 of rHuPH20 (rHuPH20 [4]; Methionine 10 mM): 3.37% | % of Oxidation Peak 1 of rHuPH20 (rHuPH20 [4]; Methionine 50 mM): 3.38%
Compound: Polysorbate 20

% of Oxidation Peak 1 of rHuPH20 (rHuPH20 [4]; Methionine 0 mM): 4.01% | % of Oxidation Peak 1 of rHuPH20 (rHuPH20 [4]; Methionine 2 mM): 3.50% | % of Oxidation Peak 1 of rHuPH20 (rHuPH20 [4]; Methionine 10 mM): 3.44% | % of Oxidation Peak 1 of rHuPH20 (rHuPH20 [4]; Methionine 50 mM): 3.34%
Compound: Polysorbate 80
